As usually defined, the IC50 is the midpoint of a concentration-inhibition curve. High values mean weaker potency, low ones greater potency. Usually Km stands for the concentration of substrate that gives half-maximal velocity.

Two molecules from publication PMC7329766, “Synthesis of the Thomsen-Friedenreich-antigen (TF-antigen) and binding of Galectin-3 to TF-antigen presenting neo-glycoproteins” (Glycoconjugate Journal, 2020) can be followed below.

For series [1], the target named is T1, human galectin-3 (Gal-3) (Homo sapiens, UniProt P17931).
T1 construct: gene LGALS3; N-terminal His6-tag (kept, used for detection), expressed in E. coli Rosetta (DE3) pLysS, IMAC purified
Nature of the series: competitive enzyme-linked lectin assay, inhibition of Gal-3 binding to immobilized asialofetuin.

Substrate in series [2]: OC[C@H]1O[C@H](F)[C@H](O)[C@@H](O)[C@H]1O
Nature of the series: discontinuous HPLC assay, glycosynthase reaction. It is filed as biochemical, Niallia circulans. The settings on record: donor substrate, acceptor GalNAc(α1-EG3-azide fixed at 5 mM), 50 mM HEPES pH 7.2, 30 °C, text gives 0.22 mM for the donor, Fig. 2 legend prints 0.22 M and assigns it to panel b (acceptor).

T1 sequence (P17931 whole entry): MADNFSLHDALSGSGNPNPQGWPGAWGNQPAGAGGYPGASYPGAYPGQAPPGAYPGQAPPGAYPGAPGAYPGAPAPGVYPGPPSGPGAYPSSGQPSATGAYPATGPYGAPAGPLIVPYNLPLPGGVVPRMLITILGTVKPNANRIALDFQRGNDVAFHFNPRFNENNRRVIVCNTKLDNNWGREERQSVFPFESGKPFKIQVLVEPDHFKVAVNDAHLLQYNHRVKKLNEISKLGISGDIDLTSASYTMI

The molecule `CC(=O)N[C@H]1[C@@H](OCCOCCOCCN=[N+]=[N-])O[C@H](CO)[C@H](O)[C@@H]1O[C@@H]1O[C@H](CO)[C@H](O)[C@H](O)[C@H]1O` [compound 6, TF-antigen-azide] registered an IC50 in series [1] of 1560 ± 92.6 µM.

B1: BgaC (β-galactosidase) (Niallia circulans; E233G) (protein)
chain: MSQLTYDDSFLLDGKEIRLLSGAMHYFRTVPEYWEDRLLKLKACGFNTVETYVAWNLHEPEEGQFVFEGIADIVRFIKTAEKVGLHVIVRPGPFICAEWEFGGFPYWLLTVPNIKLRCFNQPYLEKVDAYFDVLFERLRPLLSSNGGPIIALQIENEYGSFGNDQKYLQYLRDGIKKRVGNELLFTSDGPEPSMLSGGMIEGIFETVNFGSRAESAFAQLKQYQPNAPLMCMGFWHGWFDHWGEEHHTRSAESVVETLEEILKQNGSVNFYMAHGGTNFGFYNGANHNETDYQPTITSYDYDGLLTESGDVTEKFYAVRKVFEKYVDLPELNLPAPIPKRLFGKVKFTEHAGLLDSLHRISTPQKSEAPLPMEKYGQAYGFIVYETTIKGAYGKQALTVQDIHDRGQVYVNGEYVGIVERNRGCSRLVVELTEEESKLQIIVENMGRINYGPFVVDYKGITEGVRLGNQFLFDWTVYPLPLKDLSSLEFTADEVKENFPYFHKGILTVDKAADTFIDLSEWTKGVVFVNGHHLGRYWEIGPQQTLYVPAPFLQEGENEIILLELHKHHQSVTFVDTPVLGAIPKTP
notes: recombinant, plasmid pETDuet-1, E. coli BL21 (DE3), IMAC purified
Turning to B1, the Michaelis constant (Km) in series [2] stood at 220 µM.
